Patent US20080221039A1, “Kinin Antagonists For Treating Bladder Dysfunction” (priority 2005, published 2008)
“Also recorded” adds a separate entry of the source. Square brackets hold non-standard residues; d marks the D form. Peptide text beside a SMILES is read from it. d2Nal = N[C@H](Cc1ccc2ccccc2c1)C(=O)O

Experiments:
[1] = tested on: rat model of acetic acid induced bladder irritation; assay: Rat model of acetic acid induced bladder irritation (Example 2); type: in vivo; settings: for bladder capacity, pre-treatment: Example 2, pre-treatment prior to acetic acid application; for intercontraction interval (ICI): Example 2, FIG. 1, i.v. after acetic acid, Aspirin 10 mg/kg; for intercontraction interval (ICI) / bladder capacity: Icatibant 0.2, 1 and 5 mg/kg, Oxybutynin 1 mg/kg, R-715 1 mg/kg; for bladder capacity: Example 2, FIG. 2, i.v. after acetic acid, aspirin 10 mg/kg; for micturition pressure: Example 2, FIG. 3, after start of acetic acid infusion
Protocol: Groups of 5 female Wistar rats weighing 250 to 300 g anesthetized with urethane 1.2 g/kg i.p. in 5 ml/kg were used. A polyethylene catheter (PE50) was implanted into the bladder for saline or acetic acid infusion through a 3 way stopcock to which a pressure transducer is connected for measurements of bladder pressure (mm Hg). Saline at 37° C. was infused into the bladder at a constant rate until cystometrography stabilized in 60 minutes. Subsequently, 0.2% acetic acid was infused into the urinary bladder. […] The following parameters were measured continuously during baseline and for up to 1 hour post-dosing: bladder capacity (μl), intercontraction interval (ICI, in minutes, time between two voiding cycles), micturition pressure (mm Hg), micturition volume (ml, derived from the weight of excreted urine measured by a balance placed below the rat) and blood pressure (mm Hg). [table] Paired Student's test was applied for comparison between the time before (baseline) and after test substance or with vehicle treatment. To signify differences between test substance and vehicle control groups, Dunnett's test or unpair Student t test was used. Differences are considered significant at P<0.05 level.

[2] = target: T1, guinea pig B2 receptors (Cavia porcellus, UniProt O70526); settings: human INT407 cells; cited from earlier work
T1 construct: host or cells: human INT407 cells
T1 sequence (O70526 1-372): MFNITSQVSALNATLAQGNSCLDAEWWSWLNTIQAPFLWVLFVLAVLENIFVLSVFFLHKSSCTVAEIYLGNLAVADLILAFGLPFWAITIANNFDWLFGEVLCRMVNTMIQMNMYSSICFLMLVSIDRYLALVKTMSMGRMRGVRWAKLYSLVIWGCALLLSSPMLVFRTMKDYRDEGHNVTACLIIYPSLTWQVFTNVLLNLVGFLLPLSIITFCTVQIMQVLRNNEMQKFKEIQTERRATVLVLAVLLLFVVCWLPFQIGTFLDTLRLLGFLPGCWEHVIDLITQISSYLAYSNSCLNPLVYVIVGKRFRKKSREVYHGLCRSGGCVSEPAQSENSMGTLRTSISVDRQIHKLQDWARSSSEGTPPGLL

[3] = tested on: rat model of acetic acid induced bladder irritation; assay: Rat model of acetic acid induced bladder irritation (Example 1); type: in vivo
Protocol: Groups of 5 female Wistar rats weighing 250 to 300 g anesthetized with urethane 1.2 g/kg i.p. in 5 ml/kg were used. A polyethylene catheter (PE50) was implanted into the bladder for saline or acetic acid infusion through a 3 way stopcock to which a pressure transducer is connected for measurements of bladder pressure (mm Hg). Saline at 37° C. was infused into the bladder at a constant rate until cystometrography becomes stable. Thereafter, instillation of 0.2% acetic acid into the urinary bladder was initiated. […] The following parameters were measured continuously for 1 hour after treatment was started: intercontraction interval (ICI, minutes, defined as the time between two voiding cycles), threshold pressure (mmHg), bladder capacity (ml), micturition volume (ml), and micturition pressure (mmHg). Micturition volume is derived from the weight of excreted urine measured by a balance placed below the rat.
Paired Student's test was applied for comparison between the time before and after test substance or with vehicle treatment. To signify differences between test substance and vehicle control group, Dunnett's test was used. Differences are considered significant at P<0.05.

SMILES | bladder capacity, pre-treatment [1] | intercontraction interval (ICI) [1] | bladder capacity [1] | micturition pressure [1] | also measured
COc1cc(CNC(=O)CCCC/C=C/C(C)C)ccc1O [Capsaicin] | completely blocks the acetic acid induced decrease of bladder capacity | – | – | – | intercontraction interval (ICI), Capsaicin pre-treatment ([1]; Example 2, 25 mg/kg and 50 mg/kg s.c., 4 days prior to experiment): inhibition of the acetic acid—triggered ICI—decrease
NC(N)=NCCC[C@@H](N)C(=O)N[C@@H](CCCN=C(N)N)C(=O)N1CCC[C@H]1C(=O)N1C[C@H](O)C[C@H]1C(=O)NCC(=O)N[C@@H](Cc1cccs1)C(=O)N[C@@H](CO)C(=O)N1Cc2ccccc2C[C@@H]1C(=O)N1[C@H](C(=O)N[C@@H](CCCN=C(N)N)C(=O)O)C[C@@H]2CCCC[C@@H]21 [Icatibant, H-D-Arg-Arg-Pro-Hyp-Gly-Thi-Ser-D-Tic-Oic-Arg-OH] | completely blocks the acetic acid induced decrease of bladder capacity | increases; also recorded: doubling | increases the bladder capacity until reaching the baseline levels; also recorded: tripling | without any change | inhibition of BK-mediated inositol phosphate generation [2]: efficiently inhibited; intercontraction interval (ICI) ([3]; Example 1, FIG. 1, in comparison to the vehicle group, i.v. after start of acetic acid infusion): dose-dependently increases; bladder capacity ([3]; Example 1, FIG. 2, in comparison to the vehicle group, i.v. after start of acetic acid infusion): dose-dependently increases; micturition pressure ([3]; Example 1, FIG. 3, i.v. after start of acetic acid infusion): no decrease; bladder capacity ([3]; Example 1 summary, 1 mg/kg): doubling; interval between two micturition contractions ([3]; Example 1 summary, 1 mg/kg): doubling; micturition pressure ([3]; Example 1 summary, 1 mg/kg): without any change; reversal of acetic acid induced detrusor instabilities ([3]; rat, 1 mg/kg i.v.): able to reverse; intercontraction interval (ICI), pre-treatment ([1]; Example 2, 1 mg/kg i.v. 30 minutes prior to intravesical acetic acid infusion): strongly inhibits decrease of ICI; lowest dose at which maximal effects on ICI were reached ([1]; Example 2, i.v. after acetic acid): 0.2 mg/kg; acetic acid induced bladder dysfunction, pre-treatment ([1]; Example 2 summary, pre-treatment before acetic acid): complete inhibition
CC[C@H](C)[C@H](NC(=O)[C@@H](Cc1ccc2ccccc2c1)NC(=O)[C@H](CO)NC(=O)[C@H](Cc1ccccc1)NC(=O)CNC(=O)[C@@H]1CCCN1C(=O)[C@@H]1CCCN1C(=O)[C@H](CCCN=C(N)N)NC(=O)[C@H](CCCCN)NC(C)=O)C(=O)O [R-715, H-Ac-Lys-Arg-Pro-Pro-Gly-Phe-Ser-D-Nal-Ile-OH] (Ac-KRPPGFS[d2Nal]I-OH) | – | – | – | without any change | –
CCN(CC)CC#CCOC(=O)C(O)(c1ccccc1)C1CCCCC1 (stereo not drawn) [Oxybutynin, 4-diethylaminio-2-butynyl phenylcyclohexyglycolate] | – | if any, only slight positive effects | no significant effects | – | –
CC(=O)Oc1ccccc1C(=O)O [Aspirin] | – | increases | increases the bladder capacity until reaching the baseline levels | – | –
CC[C@H](C)[C@H](NC(=O)[C@@H](Cc1ccc2ccccc2c1)NC(=O)[C@H](CO)NC(=O)[C@H](Cc1ccccc1)NC(=O)CNC(=O)[C@@H]1CCCN1C(=O)[C@@H]1CCCN1C(=O)[C@H](CCCNC(=N)N)NC(=O)[C@H](CCCCN)NC(C)=O)C(=O)O [R-715, H-Ac-Lys-Arg-Pro-Pro-Gly-Phe-Ser-D-Nal-Ile-OH] (Ac-KRPPGFS[d2Nal]I-OH) | – | becomes effective over the study time as well but positive effects on ICI are delayed; also recorded: doubling | increases the bladder capacity until reaching the baseline levels; also recorded: tripling | – | –
